One data set has as its system R6/2 mice. The experiment in a line: Body weight of treated R6/2 mice. The format is in vivo, mouse. The protocol: Experiments were conducted to determine whether PNA-mediated inhibition of mutant huntingtin expression increased survival and/or reversed features of pathophysiology. R6/2 and non-transgenic mice were divided into two groups of three to five mice each, and treated with either HDs or ACSF for approximately ten weeks, beginning at five to six weeks of age. Treated animals received a dose of 0.15 mg/kg of the HDs PNA oligomer, administered by continuous infusion through an Alzet pump. All ACSF-treated transgenic mice died by three months of age.
In other experiments, R6/2 mice were divided into five groups (designated groups 1-5) containing eight to ten animals each. Groups 1-4 received either saline (group 1) or a specific amount of HDs (groups 2-4). Group 5 included untreated R6/2 mice. A sixth group included untreated non-transgenic B6CBA control mice. At 8 weeks of age, each mouse was weighed to establish a weight stability baseline. Baselines for clasping behavior, motility, and motor skill were established at 9 weeks of age using the methods described in Example 1.
At 9 weeks of age, the mice in each group received saline (group 1) or HDs at 2.0 mg/kg, 5.0 mg/kg, or 20.0 mg/kg (groups 2, 3, and 4, respectively) by i.p. injection every 48 hours. […] Weight stability, clasping behavior, motility, and motor skill were assessed weekly during the treatment period. […]

The test system of the next data set is human HD transgene. As to the kind of experiment: Western immunoblot of human HD transgene (htt) expression in PNA-treated R6/1 mice. The format is in vivo, mouse. How it is done:
Cannulation and microsurgery—method 1: B6CBA, R6/1, and R6/2 mice were obtained from The Jackson Laboratory (Bar Harbor, Me.). Mice were anesthetized via intraperitoneal (i.p.) injection with 100 mg/kg of a ketamine/xylazine solution containing 8 mg/mL ketamine and 1 mg/mL xylazine in 0.9% saline. Once anesthetized, each mouse was cannulated. Each anesthetized mouse was placed in a Stoelting Stereotaxic Frame with a mouse adapter (Stoelting Instruments, Wood Dale, Ill.). An incision was made using a scalpel, and the skin and tissue were pulled back with swabs to reveal the skull. The cannulation site was positioned for optimum access to the ventricle, at coordinates AP −0.2 mm, Horiz −1 mm from bregma. A cannula entry port and two bone screw ports were opened in the skull using a Dremel Flex Shaft Drill (Stoelting Instruments) with a 2.1 mm burr for the guide cannula port and a 0.7 mm burr for the bone screws (Fine Science Tools, Foster City, Calif.). Two 4.0 mm long bone screws (0.85 diameter) were placed far enough into the bone screw ports to fasten securely. After placing the bone screws, a cannula system (Plastics One, Roanoke, Va.) including a guide cannula (C315Gs-5/Spc), a dummy cannula (C313Dcs-5Spc), an injection cannula (C3151S-5.2/Spc), and a connector assembly (C313C) was placed in the guide cannula port. The guide cannula was positioned 1.5 mm into the brain using a stereotaxic needle and was secured to the bone screws and incision with dental cement. Once the dental cement hardened, the stereotaxic needle was removed and both the injection cannula and dummy cannula were placed within the guide cannula and secured to the connector assembly. Proper cannula placement was confirmed in several mice by injecting bromophenol blue dye into the ventricular space and noting that only the ventricle was stained. […]
Following the treatment period, mice were anesthetized with ether and sacrificed by cervical dislocation. […] Following centrifugation, the supernatants were removed and protein concentrations were quantified by Bradford assays using a BSA standard. […]

For a further data set, the system named is non-transgenic mice. The note with it: mouse, in vivo, 0.15 mg/kg. The protocol: Cannulation and microsurgery—Method 2: Pump cannulas were prepared 48 hours before surgery. For adaptation to mice, Alzet pump cannulas were ground to a length of 2 mm. The cannulas then were sterilized by gas ozonation. Mice were anesthetized via i.p. injection with 100 mg/kg of a ketamine/xylazine solution containing 8 mg/mL ketamine and 1 mg/mL xylazine in 0.9% saline. Once anesthetized, each mouse was cannulated. Each anesthetized mouse was placed in a Stoelting Stereotaxic Frame with a mouse adapter (Stoelting Instruments). An incision was made using a scalpel, and the skin and tissue were pulled back with swabs to reveal the skull. The cannulation site was positioned for optimum access to the ventricle, at coordinates AP −0.2 mm, Horiz −1 mm from bregma. A cannula entry port and two bone screw ports were opened in the skull using a Dremel Flex Shaft Drill (Stoelting Instruments) with a 2.1 mm burr. The cannula was lowered into place and affixed using Loctite 454 (Loctite Corp., Avon, Ohio). An Alzet Mini-Osmotic Pump was inserted into a pouch beneath the skin and attached to the cannula with silastic tubing. The wound was closed using wound clips and the animal was allowed to recuperate.
Delivery of PNA oligomer solutions: All handling of tubing and cannulas was done under sterile conditions. […]

Consider 1 substance from US20040009899A1, “Treating dominant disorders” (priority 2002, published 2004).

As to “HDs: sense PNA oligomer, 14 residues, 5′-GGACTGCCGTGCCG-3′ (SEQ ID NO:3), specific for the expanded human HD allele (all peptide nucleic acid (PNA))”, in the data set on R6/2 mice (R6/2 mice, 5.0 mg/kg i.p. every 48 hours, compared to 2.0 mg/kg or 20.0 mg/kg), the “weight stability over the treatment period” value is listed as “more stable weight”. Moreover, the “body weight over time” value with R6/2 mice (surviving R6/2 mice, 0.15 mg/kg continuous infusion by Alzet pump) is recorded as “continued to gain weight over time”. The “effectiveness at inhibiting transgene expression relative to random, scrambled PNA” value in the data set on human HD transgene (25 μg into the ventricle every other day for 4 or 6 days) is recorded as “significantly more effective”. Besides, in the data set with human HD transgene (liver, direct injection into the brain, 4 or 6 days), the “effect on expression of the human transgene in the liver” value is “little effect”. Further, the “inhibition of human HD transgene expression” value with human HD transgene (striatum, 1 μL of 25 μg/μL into the ventricle every other day for 4 or 6 days, compared to untreated R6/1 controls) is “dramatic inhibition”. Also, the “effect of treatment on non-transgenic animals” value with non-transgenic mice is on record as “appeared unaffected”.
